Test results from patent US10253052B2, “HBED-bisphosphonates, radiometal conjugates and their use as theranostic agents” (Five Eleven Pharma Inc., priority 2015, dated 2019).

Assays:
[1] = In vivo biodistribution in mice; design: species or system normal CD-1 male mice; conditions: iv
Description: Biodistribution experiments were performed by intravenously administering ^68Ga labeled 1a-h, 2, 3, BPAMD, and [^18F]NaF into normal, healthy male CD-1 mice (25-30 g). The injection activity was 20-30 μCi/animal. […] Organs of interest were harvested, weighed, and counts of radioactivity were measured by a gamma counter. The biodistribution of each sample was calculated as a percentage of the injected dose per gram of wet tissue weight (% ID/g). Tibia and femur bones were harvested and counted as bone samples.

[2] = In vitro binding to hydroxyapatite; conditions: 20 mg hydroxyapatite in saline, 10 min at room temperature
Description: Hydroxyapatite (20 mg, Sigma-Aldrich, reagent grade powder) was incubated in isotonic saline (1 mL) for 24 h. Subsequently, either ^68Ga labeled 1a-h, 2, 3, BPAMD, or [^18F]NaF (1 μCi) was added to the hydroxyapatite suspension. After vortexing for 10 seconds, the suspension was incubated for 10 min at room temperature. The samples were then centrifuged at 10,000 rpm for 3 min and the supernatant was removed. The hydroxyapatite fraction was washed twice with saline (1 mL). Radioactivity in the combined supernatants and the hydroxyapatite fraction was measured using a gamma counter. The proportion of the ^68Ga complex binding to hydroxyapatite was determined as percent of ^68Ga absorbed to hydroxyapatite.

For C[C@H](NC(=O)CCc1ccc([O-])c(CN(CCN(CC(=O)[O-])Cc2cc(CCC(=O)NC(P(=O)(O)O)P(=O)(O)O)ccc2[O-])CC(=O)[O-])c1)C(=O)O.[68Ga+3] [[^68Ga]1d], the “bone to blood ratio” value ([1]; 2 min) was 1.1, the “bone to muscle ratio” value ([1]; 2 min) was 5.9 and the “Biodistribution: Blood” value ([1]; 2 min post injection) was 9.08 ± 0.58 % dose/g. The “Biodistribution: Bone” value ([1]; 2 min post injection) was 10.1 ± 2.05 % dose/g, the “Biodistribution: Brain” value ([1]; 2 min post injection) was 0.29 ± 0.05 % dose/g and the “Biodistribution: Heart” value ([1]; 2 min post injection) was 2.99 ± 0.26 % dose/g. The “Biodistribution: Kidney” value ([1]; 2 min post injection) was 25.3 ± 3.89 % dose/g, the “Biodistribution: Liver” value ([1]; 2 min post injection) was 1.89 ± 0.16 % dose/g and the “Biodistribution: Lung” value ([1]; 2 min post injection) was 4.83 ± 0.25 % dose/g. For the same molecule, the “Biodistribution: Muscle” value ([1]; 2 min post injection) was 1.72 ± 0.15 % dose/g, the “Biodistribution: Pancreas” value ([1]; 2 min post injection) was 1.53 ± 0.14 % dose/g and the “Biodistribution: Skin” value ([1]; 2 min post injection) was 2.39 ± 0.13 % dose/g. The “Biodistribution: Spleen” value ([1]; 2 min post injection) was 1.72 ± 0.24 % dose/g, the “bone to blood ratio” value ([1]; 30 min) was 29 and the “bone to muscle ratio” value ([1]; 30 min) was 64. The “Biodistribution: Blood” value ([1]; 30 min (0.5 hr) post injection) was 0.53 ± 0.13 % dose/g, the “Biodistribution: Bone” value ([1]; 30 min (0.5 hr) post injection) was 15.3 ± 1.26 % dose/g and the “Biodistribution: Brain” value ([1]; 30 min (0.5 hr) post injection) was 0.03 ± 0.00 % dose/g. For the same molecule, the “Biodistribution: Heart” value ([1]; 30 min (0.5 hr) post injection) was 0.26 ± 0.06 % dose/g, the “Biodistribution: Kidney” value ([1]; 30 min (0.5 hr) post injection) was 2.14 ± 0.60 % dose/g and the “Biodistribution: Liver” value ([1]; 30 min (0.5 hr) post injection) was 0.26 ± 0.09 % dose/g. The “Biodistribution: Lung” value ([1]; 30 min (0.5 hr) post injection) was 0.45 ± 0.10 % dose/g, the “Biodistribution: Muscle” value ([1]; 30 min (0.5 hr) post injection) was 0.24 ± 0.06 % dose/g and the “Biodistribution: Pancreas” value ([1]; 30 min (0.5 hr) post injection) was 0.21 ± 0.12 % dose/g. For the same molecule, the “Biodistribution: Skin” value ([1]; 30 min (0.5 hr) post injection) was 0.42 ± 0.10 % dose/g, the “Biodistribution: Spleen” value ([1]; 30 min (0.5 hr) post injection) was 0.21 ± 0.07 % dose/g and the “bone to blood ratio” value ([1]; 60 min) was 144. For the same molecule, the “bone to muscle ratio” value ([1]; 60 min) was 235, the “Biodistribution: Blood” value ([1]; 60 min (1 hr) post injection) was 0.10 ± 0.01 % dose/g and the “Biodistribution: Bone” value ([1]; 60 min (1 hr) post injection) was 14.7 ± 0.50 % dose/g. The “Biodistribution: Brain” value ([1]; 60 min (1 hr) post injection) was 0.01 ± 0.00 % dose/g, the “Biodistribution: Heart” value ([1]; 60 min (1 hr) post injection) was 0.08 ± 0.01 % dose/g and the “Biodistribution: Kidney” value ([1]; 60 min (1 hr) post injection) was 1.05 ± 0.17 % dose/g. For the same molecule, the “Biodistribution: Liver” value ([1]; 60 min (1 hr) post injection) was 0.12 ± 0.01 % dose/g, the “Biodistribution: Lung” value ([1]; 60 min (1 hr) post injection) was 0.17 ± 0.01 % dose/g and the “Biodistribution: Muscle” value ([1]; 60 min (1 hr) post injection) was 0.06 ± 0.00 % dose/g. The “Biodistribution: Pancreas” value ([1]; 60 min (1 hr) post injection) was 0.06 ± 0.01 % dose/g, the “Biodistribution: Skin” value ([1]; 60 min (1 hr) post injection) was 0.13 ± 0.01 % dose/g and the “Biodistribution: Spleen” value ([1]; 60 min (1 hr) post injection) was 0.06 ± 0.00 % dose/g. The “bone to blood ratio” value ([1]; 120 min) was 278, the “bone to muscle ratio” value ([1]; 120 min) was 417 and the “Biodistribution: Blood” value ([1]; 120 min post injection) was 0.06 ± 0.02 % dose/g. For the same molecule, the “Biodistribution: Bone” value ([1]; 120 min post injection) was 17.0 ± 1.10 % dose/g, the “Biodistribution: Brain” value ([1]; 120 min post injection) was 0.00 ± 0.00 % dose/g and the “Biodistribution: Heart” value ([1]; 120 min post injection) was 0.06 ± 0.01 % dose/g. For the same molecule, the “Biodistribution: Kidney” value ([1]; 120 min post injection) was 0.91 ± 0.15 % dose/g, the “Biodistribution: Liver” value ([1]; 120 min post injection) was 0.10 ± 0.01 % dose/g and the “Biodistribution: Lung” value ([1]; 120 min post injection) was 0.09 ± 0.02 % dose/g. For the same molecule, the “Biodistribution: Muscle” value ([1]; 120 min post injection) was 0.04 ± 0.01 % dose/g, the “Biodistribution: Pancreas” value ([1]; 120 min post injection) was 0.04 ± 0.01 % dose/g and the “Biodistribution: Skin” value ([1]; 120 min post injection) was 0.09 ± 0.01 % dose/g. The “Biodistribution: Spleen” value ([1]; 120 min post injection) was 0.05 ± 0.01 % dose/g and the “Hydroxyapatite Binding (%)” value [2] was 95.1 ± 0.5%.
With O=C([O-])CN(CCN(CC(=O)[O-])Cc1cc(CCC(=O)N[C@@H](CCC(=O)O)C(=O)O)ccc1[O-])Cc1cc(CCC(=O)NC(P(=O)(O)O)P(=O)(O)O)ccc1[O-].[68Ga+3] [[^68Ga]1f] the “bone to blood ratio” value ([1]; 2 min) was 1, the “bone to muscle ratio” value ([1]; 2 min) was 4 and the “Biodistribution: Blood” value ([1]; 2 min post injection) was 8.98 ± 0.68 % dose/g. For the same molecule, the “Biodistribution: Bone” value ([1]; 2 min post injection) was 8.62 ± 0.23 % dose/g, the “Biodistribution: Brain” value ([1]; 2 min post injection) was 0.22 ± 0.00 % dose/g and the “Biodistribution: Heart” value ([1]; 2 min post injection) was 3.53 ± 0.57 % dose/g. For the same molecule, the “Biodistribution: Kidney” value ([1]; 2 min post injection) was 24.7 ± 3.13 % dose/g, the “Biodistribution: Liver” value ([1]; 2 min post injection) was 2.43 ± 0.27 % dose/g and the “Biodistribution: Lung” value ([1]; 2 min post injection) was 5.01 ± 0.81 % dose/g. For the same molecule, the “Biodistribution: Muscle” value ([1]; 2 min post injection) was 2.10 ± 0.12 % dose/g, the “Biodistribution: Pancreas” value ([1]; 2 min post injection) was 1.96 ± 0.15 % dose/g and the “Biodistribution: Skin” value ([1]; 2 min post injection) was 2.62 ± 0.11 % dose/g. For the same molecule, the “Biodistribution: Spleen” value ([1]; 2 min post injection) was 2.20 ± 0.26 % dose/g, the “bone to blood ratio” value ([1]; 30 min) was 33 and the “bone to muscle ratio” value ([1]; 30 min) was 74. For the same molecule, the “Biodistribution: Blood” value ([1]; 30 min (0.5 hr) post injection) was 0.52 ± 0.05 % dose/g, the “Biodistribution: Bone” value ([1]; 30 min (0.5 hr) post injection) was 16.8 ± 1.66 % dose/g and the “Biodistribution: Brain” value ([1]; 30 min (0.5 hr) post injection) was 0.02 ± 0.00 % dose/g. For the same molecule, the “Biodistribution: Heart” value ([1]; 30 min (0.5 hr) post injection) was 0.23 ± 0.01 % dose/g, the “Biodistribution: Kidney” value ([1]; 30 min (0.5 hr) post injection) was 2.05 ± 0.52 % dose/g and the “Biodistribution: Liver” value ([1]; 30 min (0.5 hr) post injection) was 0.28 ± 0.02 % dose/g. For the same molecule, the “Biodistribution: Lung” value ([1]; 30 min (0.5 hr) post injection) was 0.42 ± 0.03 % dose/g, the “Biodistribution: Muscle” value ([1]; 30 min (0.5 hr) post injection) was 0.23 ± 0.01 % dose/g and the “Biodistribution: Pancreas” value ([1]; 30 min (0.5 hr) post injection) was 0.15 ± 0.01 % dose/g. For the same molecule, the “Biodistribution: Skin” value ([1]; 30 min (0.5 hr) post injection) was 0.49 ± 0.04 % dose/g, the “Biodistribution: Spleen” value ([1]; 30 min (0.5 hr) post injection) was 0.22 ± 0.03 % dose/g and the “bone to blood ratio” value ([1]; 60 min) was 78. The “bone to muscle ratio” value ([1]; 60 min) was 222, the “Biodistribution: Blood” value ([1]; 60 min (1 hr) post injection) was 0.18 ± 0.04 % dose/g and the “Biodistribution: Bone” value ([1]; 60 min (1 hr) post injection) was 14.4 ± 3.01 % dose/g. The “Biodistribution: Brain” value ([1]; 60 min (1 hr) post injection) was 0.01 ± 0.00 % dose/g, the “Biodistribution: Heart” value ([1]; 60 min (1 hr) post injection) was 0.11 ± 0.01 % dose/g and the “Biodistribution: Kidney” value ([1]; 60 min (1 hr) post injection) was 1.59 ± 0.72 % dose/g. For the same molecule, the “Biodistribution: Liver” value ([1]; 60 min (1 hr) post injection) was 0.20 ± 0.02 % dose/g, the “Biodistribution: Lung” value ([1]; 60 min (1 hr) post injection) was 0.21 ± 0.01 % dose/g and the “Biodistribution: Muscle” value ([1]; 60 min (1 hr) post injection) was 0.06 ± 0.00 % dose/g. For the same molecule, the “Biodistribution: Pancreas” value ([1]; 60 min (1 hr) post injection) was 0.08 ± 0.02 % dose/g, the “Biodistribution: Skin” value ([1]; 60 min (1 hr) post injection) was 0.15 ± 0.01 % dose/g and the “Biodistribution: Spleen” value ([1]; 60 min (1 hr) post injection) was 0.12 ± 0.04 % dose/g. The “bone to blood ratio” value ([1]; 120 min) was 180, the “bone to muscle ratio” value ([1]; 120 min) was 374 and the “Biodistribution: Blood” value ([1]; 120 min post injection) was 0.09 ± 0.01 % dose/g. For the same molecule, the “Biodistribution: Bone” value ([1]; 120 min post injection) was 16.7 ± 1.12 % dose/g, the “Biodistribution: Brain” value ([1]; 120 min post injection) was 0.01 ± 0.01 % dose/g and the “Biodistribution: Heart” value ([1]; 120 min post injection) was 0.07 ± 0.01 % dose/g. For the same molecule, the “Biodistribution: Kidney” value ([1]; 120 min post injection) was 1.08 ± 0.20 % dose/g, the “Biodistribution: Liver” value ([1]; 120 min post injection) was 0.19 ± 0.01 % dose/g and the “Biodistribution: Lung” value ([1]; 120 min post injection) was 0.13 ± 0.01 % dose/g. The “Biodistribution: Muscle” value ([1]; 120 min post injection) was 0.04 ± 0.01 % dose/g, the “Biodistribution: Pancreas” value ([1]; 120 min post injection) was 0.04 ± 0.00 % dose/g and the “Biodistribution: Skin” value ([1]; 120 min post injection) was 0.09 ± 0.01 % dose/g. The “Biodistribution: Spleen” value ([1]; 120 min post injection) was 0.08 ± 0.01 % dose/g and the “Hydroxyapatite Binding (%)” value [2] was 96.4 ± 1.2%.
